Results from publication PMC6009935 (Journal of Enzyme Inhibition and Medicinal Chemistry, 2017).
Like-named read-outs stand apart in the source and are kept apart here.

System: G-protein
Assay: Functional [35S]GTPγS binding assay on rat brain membrane homogenates
Format: biochemical
Procedure: The experiments were performed by [35S]GTPγS binding assays to control the GDP to GTP exchange of the α-subunit of Gi-protein. […] We examined the opioid receptor binding affinity of 5 in competition binding experiments, using opioid receptor selective radioligands. […]
Functional [35S]GTPγS binding experiments
The functional [35S]GTPγS binding experiments were performed as previously described,5,6 with modifications. Briefly the rat brain membrane homogenates containing ~10 µg/mL protein were incubated at 30 °C for 60 min in Tris-EGTA buffer (pH 7.4) composed of 50 mM Tris-HCl, 1 mM EGTA, 3 mM MgCl2, 100 mM NaCl, containing 20 MBq/0.05 cm3 [35S]GTPγS (0.05 nM) and […]
compound 9 together with excess GDP (30 µM) in a final volume of 1 mL. Total binding was measured in the absence of test compounds, non-specific binding was determined in the presence of 10 µM unlabelled GTPγS. The bound and unbound [35S]GTPγS was separated as described in the […]
competition binding assays section through Whatmann GF/B glass fibers. The radioactivity of the filters was also detected as described above. [35S]GTPγS binding experiments were performed in triplicates and repeated at least three times.
The specific binding of all radiolabeled compounds was calculated by the subtraction of non-specific binding from total binding and was given in percentage. The data was normalized to total specific binding, which was settled 100%, which in case of [35S]GTPγS also represents the basal activity of the G-protein. Experimental data were presented as means ± S.E.M in the function of the applied ligand concentration range in logarithm form. Points were fitted with the professional curve fitting program, GraphPad Prism 5.0 (GraphPad Prism Software Inc., San Diego, CA), using non-linear regression. In the radioligand competition binding assays the ‘One-site competition’, while in [35S]GTPγS binding assays the ‘Sigmoid dose-response’ equation was applied to determine IC50 (unlabeled ligand affinity) and the maximum G-protein efficacy (Emax) and ligand potency (EC50), respectively. For IC50 and EC50 values standard error is only given in their logarithm form by the curve fitting program due to the data representation. In competition binding experiments the Ki value was calculated according to Cheng-Prusoff equation.7 […]
binding assays. In figure B, 5 is indicated again for better comparison. Figures represents the specific binding of [35S]GTPγS in percentage in the presence of increasing concentrations (10-10-10-5 M) of the indicated ligands in rat brain membrane homogenates. “Basal” on the x-axis indicates the basal activity of the monitored G-protein, which is measured in the absence of the compounds and also represents the total specific binding of [35S]GTPγS. The level of basal activity was defined as 100% and is presented with a dotted line. Points represent means ± S.E.M. for at least three experiments performed in triplicate.

[1] = rat brain membrane homogenates, basal activity = 100%
[2] = rat brain membrane homogenates, logarithm of EC50, negative sign printed

Row | Compound | Emax ± S.E.M. (maximal G-protein efficacy) [1] [%] | LogEC50 ± S.E.M. (ligand potency) [2] | agonist, antagonist or inverse agonist nature | EC50 (rat brain membrane homogenates) [nM] | EC50 [nM] | Emax ± S.E.M. (maximal G-protein efficacy) [%] | LogEC50 ± S.E.M. (ligand potency) | maximum efficacy (Emax) above basal activity [%]
1 | Cc1c(C(=O)NC2CCNCC2)nn(-c2ccc(Cl)cc2Cl)c1-n1cccc1 [Compound 5] | 99.2 ± 46.1 | ambiguous ^* |  |  |  |  |  | 
2 | Cc1c(C(=O)NC2CCN(C(=O)[C@H](Cc3ccccc3)NC(=O)CNC(=O)[C@@H](C)NC(=O)[C@@H](N)Cc3ccc(O)cc3)CC2)nn(-c2ccc(Cl)cc2Cl)c1-n1cccc1 [Compound 9] | 36.62 ± 10.35 | −5.44 ± 0.21 | inverse agonist | 3600 |  |  |  | 
3 | C[C@@H](NC(=O)[C@@H](N)Cc1ccc(O)cc1)C(=O)NCC(=O)N[C@@H](Cc1ccccc1)C(N)=O [Compound 10, Tyr-D-Ala-Gly-Phe-NH2, reference compound] |  |  | agonist |  | 81.3 | 161.5 ± 4.08 | −7.09 ± 0.22 (81.3 nM) | ~70
